# From US20160287696A1, “PAN POLLEN IMMUNOGENS AND METHODS AND USES FOR IMMUNE RESPONSE MODULATION” (LA JOLLA INSTITUTE FOR ALLERGY AND IMMUNOLOGY, priority 2013, published 2016)
# “And” between values parts separate entries of the source, which are not always exact repeats. Equal entries are not always repeated.
# System: PBMCs from Phl p reactive donors
# Assay: Cross-reactivity: IL-5 ELISPOT of PBMCs expanded 14 days with individual peptides, response to pollen extracts
# Type: cell-based, human
# Settings: for Amb p % Reactivity: Amb p (weed) pollen extract; for Amb p % Reactivity / Ant o % Reactivity / Bet v % Reactivity / Cyn d % Reactivity / Lol p % Reactivity / Ole e % Reactivity / Phl p % Reactivity / Pla l % Reactivity / Poa p % Reactivity / Que a % Reactivity: reactivity of extract as percentage of reactivity to the peptide, PBMCs expanded 14 days with the peptide; for Ant o % Reactivity: Ant o (grass) pollen extract; for Bet v % Reactivity: Bet v (tree) pollen extract; for Cyn d % Reactivity: Cyn d (grass) pollen extract; for Lol p % Reactivity: Lol p (grass) pollen extract; for Ole e % Reactivity: Ole e (tree) pollen extract; for Phl p % Reactivity: Phl p (grass) pollen extract; for Pla l % Reactivity: Pla l (weed) pollen extract; for Poa p % Reactivity: Poa p (grass) pollen extract; for Que a % Reactivity: Que a (tree) pollen extract; for Controls, Irrelevant Pool: control: response to irrelevant pool of cells expanded with the peptide; for Controls, Relevant Pool: control: response to relevant pool of cells expanded with the peptide; for % Reactivity, Fra e: reactivity of Fra e (tree) pollen extract as percentage of the reactivity to the peptide, cells expanded with the peptide for 14 days
# Procedure: For each peptide, TG allergic donors were selected that reacted to the peptide after expanding PBMCs in vitro with TG extract. […] Reponses to extracts and peptide pools are expressed as the relative fraction of the response to the peptide itself, and capped at 100%.
# Each peptide was used to stimulate cells and cross reactivity was tested for extracts from each pollen species. The number of mismatches (# of mm) for each peptide compared to the pollen species and the reactivity of the extracts as a percentage of the reactivity compared to the peptide are shown.
# PBMCs from Phl p reactive donors were expanded with individual PG+ peptides as well as peptides derived from major allergens of Phl p for 14 days (peptides shown in Table 10). For each peptide, the mismatch to a corresponding sequence in a non-grass pollen species or a pollen species other than Phl p were determined. Cytokine IL-5 responses were measured in response to the peptide itself, Phl p extract and extracts of the other pollen species. Reponses to extracts and peptide pools were expressed as the relative fraction of the response to the peptide itself and plotted as a function of conservation of the peptide in the different extracts (FIG. 1).
Sequence,Amb p % Reactivity,Ant o % Reactivity,Bet v % Reactivity,Cyn d % Reactivity,Lol p % Reactivity,Ole e % Reactivity,Phl p % Reactivity,Pla l % Reactivity,Poa p % Reactivity,Que a % Reactivity,"Controls, Irrelevant Pool","Controls, Relevant Pool","% Reactivity, Fra e"
AVMLTFDNAGMWNVR,2%,9%,0%,18%,36%,3%,4%,9%,25%,0%,0,100,0%
DAYVATLTEALRVIA,–,95% and 90% and 58% and 68%,–,–,–,–,–,–,–,10% and 8% and 0%,–,100 and 96 and 67,–
DINVGFKAAVAAAAG,–,–,0% and 2%,–,–,–,–,0% and 3% and 10%,–,2% and 0%,–,53 and 100 and 95,0% and 4% and 1%
DIYNYMEPYVSKVDP,37%,–,0%,83%,100%,82%,30%,17%,23%,0%,49,100,49%
EEWEPLTKKGNVWEV,49%,100%,3%,7%,100%,13%,100%,23%,100%,1%,32,100,76%
FKAAVAAAAGAPPAD,15%,62%,22%,31%,68%,39%,2%,2%,26%,6%,23,100,38%
FPIVQRFLEGASSID,–,89% and 100%,5% and 0%,22% and 39%,–,–,–,–,95% and 100%,0%,100,–,–
GELELQFRRVKCKYP,–,–,–,–,–,–,–,–,–,–,–,88 and 53 and 92 and 100,–
GSDEKNLALSIKYNK,5%,58%,0%,8%,66%,10%,32%,0%,67%,0%,19,87,4%
IGSFFYFPSIGMQRT,0%,3%,2%,9%,6%,1%,0%,2%,2%,1%,1,63,1%
INVGFKAAVAAAASV,–,–,1% and 0%,–,–,–,–,0% and 9%,–,0% and 2%,–,100 and 70 and 60,–
LAKYKANWIEIMRIK,–,14%,–,47%,33%,–,6%,–,22%,–,19,31,14%
LIEKINAGFKAAVAA,–,–,0% and 9%,1% and 9%,39% and 77%,2% and 12%,–,–,41% and 79%,0% and 3%,14 and 20,83 and 90,–
MRNVFDDVVPADFKV,–,–,2% and 3% and 1% and 0%,–,88% and 82% and 73% and 72% and 100%,–,–,–,–,–,–,81 and 94 and 98 and 100,–
NAGFKAAVAAAAVVP,–,–,–,–,–,–,–,–,–,–,–,77 and 100,–
NGSQFFLCTAKTAWL,–,–,1%,–,–,4% and 5%,–,1% and 2%,–,–,–,100 and 89,3% and 0%
NLALSIKYNKEGDSM,76%,0%,0%,76%,76%,78%,57%,41%,100%,0%,0,100,0%
NPMTVFWSKMAQSMT,0%,0%,0%,1%,1%,0%,0%,0%,0%,0%,1,79,0%
NVFDEVIPTAFTVGK,–,–,2% and 0%,0%,96% and 100%,–,75% and 81%,–,–,0%,17 and 28,100,–
NVWEVKSSKPLVGPF,–,–,1% and 2% and 5% and 4% and 0%,–,–,–,–,–,–,–,–,100 and 68 and 94,0%
